Assay [1] has as its system atp-7 ADS construct (DNA, aptamer) CACCTGGGGGAGTATTGCGGAGGAAGGTTTCTGTCTCTTATACACATCTGACGCTGCCGACGA/TCGTCGGCAGCGTCAGATGTGTATAAGAGACAGTTTTTTTTTTTTTTTTTTTTTTTTTCCGGGGGCTATC
The assay is described as follows: Cy3/quencher fluorescence plate reader, two-site fit. The settings on record: 120 mM Na+, 5 mM K+, 1 mM Mg2+, 1 mM Ca2+; 20 mM Tris-HCl, 0.01% Tween-20, 25 °C; apparent; lower end of range 12–157, atp-7 stated highest affinity.

In assay [2] the test system is glu-1 ADS construct (DNA, aptamer, boronic acid-modified U (Z, T in the source) at 5,7,8,12,15,19,24,26 of strand 1 (MS of Bio-NNGmin: seven of eight coupled)) CCCGTGTTAGATAGTAAGTGCAATCTCGGCTTTCTGTCTCTTATACACATCTGACGCTGCCGACGA/TCGTCGGCAGCGTCAGATGTGTATAAGAGACAGTTTTTTTTTTTTTTTTTTTTTTTTTTAGGGCAGGCTC
Put plainly: Cy3/quencher fluorescence plate reader, single-site fit. Particulars: 120 mM Na+, 5 mM K+, 1 mM Mg2+, 1 mM Ca2+; 20 mM Tris-HCl, 0.01% Tween-20, 25 °C; apparent; order of ~0.3 for all four constructs.

Assay [3] deals with NNGmin_scr with glu-1 (DNA, other, boronic acid-modified U (Z) at 1,4,15,18,19,22,26,29 of strand 1) TGGTGCGCGCAGGCTCCTTAATGCATAATTTTCTGTCTCTTATACACATCTGACGCTGCCGACG/TCGTCGGCAGCGTCAGATGTGTATAAGAGACAGTTTTTTTTTTTTTTTTTTTTTTTTTTAGGGCAGGCTC
Put plainly: Cy3/quencher fluorescence plate reader. The settings on record: 120 mM Na+, 5 mM K+, 1 mM Mg2+, 1 mM Ca2+; 20 mM Tris-HCl, 25 °C; 20% signal change against 45-50% for glu1-4.

For assay [4], the system named is glu-3 ADS construct (DNA, aptamer, boronic acid-modified U (Z, T in the source) at 5,7,8,12,15,19,24,26 of strand 1 (MS of Bio-NNGmin: seven of eight coupled)) CCCGTGTTAGATAGTAAGTGCAATCTCGGCTTTCTGTCTCTTATACACATCTGACGCTGCCGACGA/TCGTCGGCAGCGTCAGATGTGTATAAGAGACAGTTTTTTTTTTTTTTTTTTTTTTTTTTACCAGGAGCTC
Put plainly: Cy3/quencher fluorescence plate reader, single-site fit. The settings on record: 120 mM Na+, 5 mM K+, 1 mM Mg2+, 1 mM Ca2+; 20 mM Tris-HCl, 0.01% Tween-20, 25 °C; apparent; order of ~0.3 for all four constructs.

For assay [5], the system named is NNGmin_scr with glu-4 (DNA, other, boronic acid-modified U (Z) at 1,4,15,18,19,22,26,29 of strand 1) TGGTGCGCGCAGGCTCCTTAATGCATAATTTTCTGTCTCTTATACACATCTGACGCTGCCGACG/TCGTCGGCAGCGTCAGATGTGTATAAGAGACAGTTTTTTTTTTTTTTTTTTTTTTTTTACCAGGAGCTTC
Put plainly: Cy3/quencher fluorescence plate reader. Particulars: 120 mM Na+, 5 mM K+, 1 mM Mg2+, 1 mM Ca2+; 20 mM Tris-HCl, 25 °C; 20% signal change against 45-50% for glu1-4.

Assay [6] concerns NNGmin_scr with glu-2 (DNA, other, boronic acid-modified U (Z) at 1,4,15,18,19,22,26,29 of strand 1) TGGTGCGCGCAGGCTCCTTAATGCATAATTTTCTGTCTCTTATACACATCTGACGCTGCCGACG/TCGTCGGCAGCGTCAGATGTGTATAAGAGACAGTTTTTTTTTTTTTTTTTTTTTTTTTCAGGACAGGCTC
The assay is described as follows: Cy3/quencher fluorescence plate reader. Particulars: 120 mM Na+, 5 mM K+, 1 mM Mg2+, 1 mM Ca2+; 20 mM Tris-HCl, 25 °C; 20% signal change against 45-50% for glu1-4.

For assay [7], the system named is glu-4 ADS construct (DNA, aptamer, boronic acid-modified U (Z, T in the source) at 5,7,8,12,15,19,24,26 of strand 1 (MS of Bio-NNGmin: seven of eight coupled)) CCCGTGTTAGATAGTAAGTGCAATCTCGGCTTTCTGTCTCTTATACACATCTGACGCTGCCGACGA/TCGTCGGCAGCGTCAGATGTGTATAAGAGACAGTTTTTTTTTTTTTTTTTTTTTTTTTACCAGGAGCTTC
The assay is described as follows: Cy3/quencher fluorescence plate reader, single-site fit. Particulars: 120 mM Na+, 5 mM K+, 1 mM Mg2+, 1 mM Ca2+; 20 mM Tris-HCl, 0.01% Tween-20, 25 °C; apparent; order of ~0.3 for all four constructs.

Assay [8] relates to NNGmin_scr with glu-3 (DNA, other, boronic acid-modified U (Z) at 1,4,15,18,19,22,26,29 of strand 1) TGGTGCGCGCAGGCTCCTTAATGCATAATTTTCTGTCTCTTATACACATCTGACGCTGCCGACG/TCGTCGGCAGCGTCAGATGTGTATAAGAGACAGTTTTTTTTTTTTTTTTTTTTTTTTTTACCAGGAGCTC
The assay is described as follows: Cy3/quencher fluorescence plate reader. Particulars: 120 mM Na+, 5 mM K+, 1 mM Mg2+, 1 mM Ca2+; 20 mM Tris-HCl, 25 °C; 20% signal change against 45-50% for glu1-4.

The subject of assay [9] is glu-2 ADS construct (DNA, aptamer, boronic acid-modified U (Z, T in the source) at 5,7,8,12,15,19,24,26 of strand 1 (MS of Bio-NNGmin: seven of eight coupled)) CCCGTGTTAGATAGTAAGTGCAATCTCGGCTTTCTGTCTCTTATACACATCTGACGCTGCCGACGA/TCGTCGGCAGCGTCAGATGTGTATAAGAGACAGTTTTTTTTTTTTTTTTTTTTTTTTTCAGGACAGGCTC
Put plainly: Cy3/quencher fluorescence plate reader, single-site fit. Particulars: 120 mM Na+, 5 mM K+, 1 mM Mg2+, 1 mM Ca2+; 20 mM Tris-HCl, 0.01% Tween-20, 25 °C; apparent; order of ~0.3 for all four constructs.

SMILES strings stand for the structures.

As for `Nc1ncnc2c1ncn2[C@@H]1O[C@H](COP(=O)(O)OP(=O)(O)OP(=O)(O)O)[C@@H](O)[C@H]1O`, the KD in [1] was 12 µM.

`OC[C@H]1OC(O)[C@H](O)[C@@H](O)[C@@H]1O` (stereo partly drawn): the KDeff in [2], in assay [4], in [7] and in assay [9] was ~ 0.3 mM each time. For the same compound, the binding result in assay [3], in [5], in [6] and in assay [8] was “weak” in each case.

The record behind these values is PMC10126150 (2023).
